Consider 1 compound from article PMC12610721, “The Action of Cannabidiol on Doxycycline Cytotoxicity in Human Cells—In Vitro Study” (Molecules, 2025).

For data set [1], the system named is HEK-293 cells. Further details: method as in earlier work. As to conditions: cited from earlier work; for IC50: HEK-293, 48 h of exposure.
Another data set deals with SH-SY5Y cells. The data set can be described thus: DNA synthesis (BrdU assay). Conditions: 72 h. As to the method:
(§1) This innovative study evaluated the effects of cannabidiol (Cannabis sativa L.) on doxycycline-induced toxicity using three cell cultures: neural—SH-SY5Y, liver—HepG2, and kidney—HEK-293. […] A series of cytotoxicity assays included assessments of mitochondrial activity, lysosomal activity, cell membrane integrity, DNA synthesis, and cell proliferation. Based on the obtained results, IC50 values for doxycycline, both in monotherapy and in combination with CBD, were calculated, along with evaluations of ROS, death of cells, and morphology. The interaction between the drug and CBD was further analyzed by the combination index (CI).
(§2) Cell proliferation was evaluated using the BrdU assay (Cell Proliferation ELISA, BrdU [colorimetric], Roche, Switzerland) according to the manufacturer’s instructions. Briefly, BrdU was incorporated into newly synthesized DNA in place of thymidine during cell division. Incorporated BrdU was detected using an anti-BrdU antibody conjugated with peroxidase. The enzymatic reaction product was quantified by measuring absorbance. Absorbance was measured at 370 nm and 492 nm using the Synergy 2 Multi-Mode Microplate Reader (BioTek® Instruments Inc., Winooski, VT, USA), with a blank as reference.
(§3) To determine the types of interaction that occur when cells are exposed to combinations of DOX and CBD, the method established by Chou and Talalay was used in this study. The dose–effect relationships of the individual and combined test compounds were modeled biometrically using the Median-Effect Equation based on the Mass Action Law.fa/fu = (D/Dm)^m
(§4) In this isobolographic analysis, the combination index (CI) is a quantitative parameter used to evaluate the type and strength of interactions between multiple compounds. For all combinations, CI values were calculated across a range of affected fractions (Fa) from 0.05 to 0.95 (corresponding to 5–95% toxicity). CI values of 0.9–1.1, <0.9, and >1.1 indicate additive, synergistic, and antagonistic effects, respectively.
(§5) The study was conducted in three independent experiments (n = 3). […] Cytotoxicity data were analyzed using one-way analysis of variance (ANOVA), followed by Dunnett’s post hoc test to assess significance relative to the negative control. The half-maximal inhibitory concentration (IC50), representing the drug or drug–CBD mixture concentration required to inhibit cell viability by 50%, was calculated using GraphPad Prism 5.0. Statistical comparisons between IC50 values were performed using ANOVA followed by Tukey’s post hoc test. Differences were considered statistically significant at p ≤ 0.05.

A further data set relates to HepG2 cells. As to the kind of experiment: DNA synthesis (BrdU assay). As to the method:
as §1, §2, §3, §4, §5
A general note: Incorporation of labelled thymidine or its analogues reports DNA synthesis.

In data set [2] the test system is HEK-293 cells. As to the kind of experiment: DNA synthesis (BrdU assay). As to conditions: for doxycycline concentration that inhibited DNA synthesis: HEK-293, BrdU, 72 h. On the procedure: as §1, §2, §3, §4, §5

Each structure is given as a SMILES string. Where two headings read alike, the source gives them in different places.

The term IC50 denotes the point on the concentration scale where inhibition reaches its midpoint. For the compound `C[C@H]1c2cccc(O)c2C(=O)C2=C(O)[C@]3(O)C(=O)C(C(N)=O)=C(O)[C@@H](N(C)C)[C@@H]3[C@@H](O)[C@@H]21` [DOX, doxycycline hyclate], the “effect on cell viability” value in the data set with HEK-293 cells [1] (HEK-293, 20 µg/mL) was “reduces the viability”. The induction of apoptosis entry in the data set on HEK-293 cells [1] (HEK-293, 20 µg/mL) is listed as “does not induce apoptosis”. In addition, the IC50 in the data set with HEK-293 cells [1] (converted value in brackets) was 6.05 µg/mL; in the data set with HEK-293 cells [1] (read-out: IC50), 11.8 µM; with SH-SY5Y cells (Homo sapiens), 15.6 ± 0.7 µg/mL; in the data set with HepG2 cells (Homo sapiens, HepG2, 72 h), 24 ± 0.4 µg/mL; in the data set with HEK-293 cells [2] (Homo sapiens, HEK293, 72 h) it was 8.9 ± 0.1 µg/mL. For the same compound, the “doxycycline concentration that inhibited DNA synthesis” value in the data set with SH-SY5Y cells (BrdU) turned out to be 12.5 µg/mL; in the data set with HepG2 cells (HepG2, BrdU, 72 h), 12.5 µg/mL; in the data set with HEK-293 cells [2] it was 3.12 µg/mL; in the data set with HEK-293 cells [2] (listed as doxycycline) it was 3.125 µg/mL.
